Where two headings read alike, the source gives them in different places. Positions of bridges follow the written chain, without caps; N, C: chain ends. Residues, ends and D or L forms follow the SMILES beside them.
Columns and labels:
[1] = test system: herpes simplex virus type 1 (HSV-1); experiment: Anti-HSV activity, inhibition of virus-induced cytopathic effect in Vero cells; format: cell-based; conditions: HSV-1 KOS strain, 72 hours at 37°C, 50% inhibition of cytopathic effect
Protocol: (§1) The in vitro antiviral activity of BU-4628V was assessed against the herpes simplex virus type 1 (HSV-1) using the KOS strain. The assay was done according to the reported protocol of C. McLaren et al. in Antiviral Research, 3, 223-234, (1986) with minor modification. Briefly, 50 µl of Eagle's MEM medium containing BU-4628V and then 200 µl of the Vero cell suspension (2 X 10⁴ cells/200 µl) were added to a well of a 96-well microtiter plate. To the well, 50µl of medium containing approximately 30 times of the 50% tissue culture infectious dose (50% TCID) of virus was added. In a parallel experiment, the same set of cells without virus infection was prepared, which was for the determination of cytotoxicity of the sample. After 72 hours incubation at 37°C, the inhibition degree of virus-induced cytopathic effect and cytotoxicity by the sample were determined, respectively. The ID₅₀ is expressed as the concentration of a compound showing 50% growth inhibition of the cytopathic effect and the TD₅₀ as the concentration of a compound showing 50% growth inhibition of the cells in the absence of virus. Acyclovir was used as the reference compound for anti-HSV activity in the assay.

Vero cell = experiment: Cytotoxicity in Vero cells without virus infection; format: cell-based; conditions: Vero cells in the absence of virus, 72 hours at 37°C; 50% growth inhibition
Protocol: as §1

[2] = Cytotoxicity in Vero cells without virus infection; format: cell-based; conditions: Vero cells in the absence of virus, 72 hours at 37°C, 50% growth inhibition, read-out: TD₅₀
Protocol: as §1

HIV-1 RF = experiment: Anti-HIV activity, XTT assay in CEM-SS cells; format: cell-based, human immunodeficiency virus; conditions: HIV-1 RF strain, read-out: IC₅₀
From the text: (§2) The antiviral effect is expressed as the inhibitory concentration of a compound which reduces the number of viruses of the infected culture to 50% of that of the drug - untreated, control culture (IC₅₀). The cytotoxicity is expressed as the concentration of a compound which yields 50% of the number of viable cells of the untreated control cultures (IC₅₀).

HIV-1 IIIb = experiment: Anti-HIV activity, XTT assay in CEM-SS cells; format: cell-based, human immunodeficiency virus; conditions: HIV-1 IIIb strain, read-out: IC₅₀
From the text: as §2

HIV-2 CBL-20 = experiment: Anti-HIV activity, XTT assay in CEM-SS cells; format: cell-based, human immunodeficiency virus; conditions: HIV-2 CBL-20 strain, read-out: IC₅₀
From the text: The antiviral effect is expressed as the inhibitory concentration of a compound which reduces the number of viruses of the infected culture to 50% of that of the drug - untreated, control culture (IC₅₀).

[3] = Cytotoxicity in CEM-SS cells (XTT assay); format: cell-based; conditions: human, concentration yielding 50% of viable cells of untreated control, read-out: cytotoxicity IC₅₀
From the text: as §2

CEM-SS cells [4] = experiment: Cytotoxicity in CEM-SS cells (XTT assay); format: cell-based; conditions: result in words
From the text: as §2

S. typhi 901 = format: cell-based; conditions: 901, 18 h, pH 7
Solubility in solvents = format: physicochemical
From the text: The antiviral antibiotic BU-4628V was isolated as a white amorphous powder.

[5] = test system: human immunodeficiency virus; experiment: Anti-HIV activity, XTT assay in CEM-SS cells (strain not stated); format: cell-based; conditions: Human immunodeficiency virus 1, read-out: IC₅₀
CEM-SS cells [6] = test system: CEM-SS cells
From the text: as §2

Q: Which ID₅₀ [1] does the source give for Nc1nc2c(ncn2COCCO)c(=O)[nH]1 [Acyclovir] here?
A: 0.23 µg/mL

Q: And the TD₅₀ (Vero cell)?
A: >100 µg/mL

Q: With CC[C@H](C)[C@@H]1NC(=O)CNC(=O)[C@H](CC(C)C)NC(=O)[C@@H]2CSSC[C@@H]3NC(=O)CNC(=O)[C@H](C)NC(=O)[C@H](Cc4ccccc4)NC(=O)[C@H](CC(=O)N2)NC(=O)[C@H](CC(N)=O)NC(=O)[C@H](CSSC[C@@H](C(=O)N[C@@H](Cc2ccccc2)C(=O)N[C@@H](Cc2c[nH]c4ccccc24)C(=O)O)NC(=O)[C@H](C(C)C)NC(=O)[C@H]([C@@H](C)CC)NC(=O)[C@H](C)NC(=O)[C@H](Cc2ccc(O)cc2)NC(=O)CNC3=O)NC(=O)[C@H](CO)NC(=O)CNC1=O [BU-4628V] (CLGIGSCNDFAGCGYAIVCFW-OH; disulfide 1-13, 7-19; lactam N-9; C-terminus assumed) as the molecule, how does the ID₅₀ [1] read?
A: 27 µg/mL

Q: What about the CC50 at 72 h [2] of the same molecule?
A: > 100 µg/mL

Q: And the IC50 (HIV-1 RF)?
A: 140 nM

Q: And the IC50 (HIV-1 IIIb)?
A: 920 nM

Q: And the IC50 (HIV-2 CBL-20)?
A: 320 nM

Q: And the CC50 [3]?
A: 26000 to 46000 nM

Q: What about the cytotoxicity (CEM-SS cells [4]) of the same molecule?
A: very weak cytotoxicity

Q: And the MIC (S. typhi 901)?
A: >100 µg/mL

Q: And the solubility (Solubility in solvents; in alkaline water)?
A: slightly soluble

Q: And the solubility (Solubility in solvents; in benzene)?
A: insoluble

Q: What about the solubility (Solubility in solvents; in chloroform) of the same molecule?
A: insoluble

Q: What about the solubility (Solubility in solvents; in dimethyl sulfoxide) of the same molecule?
A: soluble

Q: What about the solubility (Solubility in solvents; in dimethylformamide) of the same molecule?
A: soluble

Q: And the solubility (Solubility in solvents; in ethanol)?
A: soluble

Q: And the solubility (Solubility in solvents; in ethyl acetate)?
A: insoluble

Q: And the solubility (Solubility in solvents; in methanol)?
A: soluble

Q: And the solubility (Solubility in solvents; in n-hexane)?
A: insoluble

Q: What about the solubility (Solubility in solvents; in petroleum ether) of the same molecule?
A: insoluble

Q: And the solubility (Solubility in solvents; in water)?
A: insoluble

Q: For O=c1[nH]cnc2c1ncn2[C@H]1CC[C@@H](CO)O1 [ddI, 2',3'-Dideoxyinosine], which IC50 [5] is on record?
A: 1000 to 2000 nM

Q: And the cytotoxicity (CEM-SS cells [6])?
A: very weak cytotoxicity

Reference: patent publication EP0603030A2, “Antiviral antibiotic BU-4628V and preparation thereof” (Bristol-Myers Squibb Company, priority 1992, dated 1994)
